Here are results for 15 compounds from patent EP0934932A1 (MEIJI SEIKA KABUSHIKI KAISHA, priority 1996, dated 1998).

The experiment has as its target T1, human dopamine D4 receptor (Homo sapiens, UniProt P21917).
T1 construct: expressed in transfected cells
T1 sequence (P21917 1-419): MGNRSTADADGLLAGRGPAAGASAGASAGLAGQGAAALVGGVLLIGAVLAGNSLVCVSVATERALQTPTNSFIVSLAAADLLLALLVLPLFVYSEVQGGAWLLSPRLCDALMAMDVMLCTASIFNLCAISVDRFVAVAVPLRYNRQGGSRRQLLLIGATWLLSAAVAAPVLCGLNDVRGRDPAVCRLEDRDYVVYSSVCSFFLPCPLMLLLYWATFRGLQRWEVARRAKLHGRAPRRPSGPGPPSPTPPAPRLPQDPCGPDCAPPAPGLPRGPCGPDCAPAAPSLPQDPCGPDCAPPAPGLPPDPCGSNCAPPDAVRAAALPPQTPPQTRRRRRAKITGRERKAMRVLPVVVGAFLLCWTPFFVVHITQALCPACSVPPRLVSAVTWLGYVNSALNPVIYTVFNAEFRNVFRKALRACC
As to the kind of experiment: Binding affinity for dopamine D4 receptor ([3H]-spiperone displacement, membrane fraction). The note with it: cloned human dopamine D4 receptor; [3H]-spiperone 0.2nM; 37°C for 30 min; Ki from IC50 by the equation of Cheng and Prusoff. On the procedure: Cells that express cloned human dopamine D4 receptor were harvested in an assay buffer (50mM Tris-HCl, pH7.4, containg 120 mM NaCl, 5 mM KCl, 1mM MgCl2, and 1 mM CaCl2) and homogenized in a potter type homogenizer. The membrane fraction was centrifuged at 39000 g for 20 min at 4°C. The pellet was suspended in 1 ml of the assay buffer per cells from dish having a diameter of 10 cm and was again homogenated. The aliquots (100µl) was added to the buffer containing [^3H]-spiperone of a final concentration of 0.2nM and a test compound to the final assay volume of 300µl, which was then incubated at 37°C for 30 min. The incubation was stopped by rapid filtration on a GF/B filter. Washing with 5 ml of ice-cold 50 mM Tris-HCl (pH 7.4) was then carried out. The radioactivity was measured with a packered liquid scintillation counter. The amount of nonspecific binding was determined in the presence of 1 µM spiperone, and the amount of the specific binding was then determined by subtracting the amount of the nonspecific binding from the total binding. For each compound, IC50 was determined by a regression analysis using a nonlinear least square method. The Ki value was then calculated by the equation of Cheng and Prusoff.
As usually defined, the Ki is the dissociation constant of the complex between target and ligand, obtained from inhibition or displacement. The low end stands for higher affinity, the high end for lower affinity. With `Cc1ccccc1CN1CCC(CCCN2C(=O)CCc3ccccc32)CC1` [Example 44, 1-[3-[1-(2-Methylbenzyl)-4-piperidinyl]-propyl]-3,4-dihydro-2(1H)-quinolinone], affinity was put at a Ki of 2.8 nM. Take `O=c1ccc2ccccc2n1CCCN1CCC(Oc2ccc(Cl)cc2)CC1` [Example 20, 1-[3-[4-(4-Chlorophenoxy)-1-piperidinyl]-propyl]-2(1H)-quinolinone]: the affinity corresponds to a Ki of 2 nM. The Ki values of the last two compounds are within 1.5-fold of each other. `O=c1ccc2ccccc2n1CCCN1CCN(CC2CCCCC2)CC1` [Example 1, 1-[3-(4-Cyclohexanemethyl-1-piperazinyl)-propyl]-2(1H)-quinolinone] showed a Ki of 7.6 nM. `O=C1CCc2ccccc2N1CCCC1CCN(Cc2ccc(F)cc2F)CC1` [Example 39, 1-[3-[1-(2,4-Difluorobenzyl)-4-piperidinyl]propyl]-3,4-dihydro-2(1H)-quinolinone] displayed an inhibition constant Ki of 5.9 nM. For `O=c1ccc2ccccc2n1CCCC1CCN(Cc2ccc(F)c(F)c2)CC1` [Example 24, 1-[3-[1-(3,4-Difluorobenzyl)-4-piperidinyl]-propyl]-2 (1H)-quinolinone], the Ki was found to be 6 nM. The Ki values of the last two compounds are within 1.5-fold of each other. Regarding `Cc1ccc(CN2CCC(CCCN3C(=O)CCc4ccccc43)CC2)cc1` [Example 55, 1-[3-[1-(4-Methylbenzyl)-4-piperidinyl]-propyl]-3,4-dihydro-2 (1H)-quinolinone], the Ki came to 1 nM.

Turning to `O=C1CCc2ccccc2N1CCCC1CCN(Cc2ccc(F)c(F)c2)CC1` [Example 30, 1-[3-[1-(3,4-Difuorobenzyl)-4-piperidinyl]-propyl]-3,4-dihydro-2 (1H)-quinolinone], the Ki was 5.7 nM. For the compound `O=C1COc2ccccc2N1CCCC1CCN(Cc2ccc(F)cc2)CC1` [Example 27, 1-[3-[1-(4-Fluorobenzyl)-4-piperidinyl]-propyl]-4H-benzo[1,4]oxazin-3-one], the inhibition constant (Ki) turned out to be 29 nM. With `O=C1COc2ccccc2N1CCCC1CCN(Cc2ccc(Cl)cc2)CC1` [Example 29, 1-[3-[1-(4-Chlorobenzyl)-4-piperidinyl]-propyl]-4H-benzo[1,4]oxazin-3-one] the figure was 5.1 nM. `O=C1CCc2ccccc2N1CCN1CCN(CC2CCCCC2)CC1` [Example 10 (A), 1-[2-(4-Cyclohexanemethyl-1-piperazinyl)-ethyl]-3,4-dihydro-2(1H)-quinolinone] showed a Ki of 34 nM.

`O=C1CCc2ccccc2N1CCCC1CCN(Cc2ccc(Cl)cc2)CC1` [Example 41, 1-[3-[1-(4-Chlorobenzyl)-4-piperidinyl]-propyl]-3,4-dihydro-2 (1H)-quinolinone] came in with a Ki of 1.1 nM. As to `Cc1cccc(CN2CCC(CCCN3C(=O)CCc4ccccc43)CC2)c1` [Example 54, 1-[3-[1-(3-Methylbenzyl)-4-piperidinyl]-propyl]-3,4-dihydro-2(1H)-quinolinone], the affinity corresponds to a Ki of 7.5 nM. `O=c1ccc2ccccc2n1CCCN1CCN(Cc2ccc(F)c(F)c2)CC1` [Example 3, 1-[3-[4-(3,4-Difluorobenzyl)-1-piperazinyl]-propyl]-2(1H)-quinolinone] displayed a Ki of 18 nM.

Turning to `O=C1CSc2ccccc2N1CCCC1CCN(Cc2ccc(F)cc2)CC1` [Example 32], the Ki was determined as 7.6 nM. Turning to `O=C1CSc2ccccc2N1CCCC1CCN(Cc2ccc(Cl)cc2)CC1` [Example 33], affinity was put at a Ki of 1 nM.
